SMILES strings stand for the structures. Structures can show the parent of a compound that is named as a salt. Where two headings read alike, the source gives them in different places.

What all share (type): biochemical
One assay has as its target T1, recombinant PRL-3 (Homo sapiens, UniProt O75365).
T1 construct: 6xHis (N, cleaved yes); made in house; host or cells: E. coli One Shot BL21 Star
As to the kind of experiment: In vitro phosphatase assay (DiFMUP hydrolysis), PRL-3. Also: test concentration or dose not given here.

Another assay concerns the target T2, recombinant PRL-2 (Homo sapiens, UniProt Q12974).
T2 construct: 6xHis (N, cleaved yes); made in house; host or cells: E. coli One Shot BL21 Star
T2 sequence (Q12974 1-167): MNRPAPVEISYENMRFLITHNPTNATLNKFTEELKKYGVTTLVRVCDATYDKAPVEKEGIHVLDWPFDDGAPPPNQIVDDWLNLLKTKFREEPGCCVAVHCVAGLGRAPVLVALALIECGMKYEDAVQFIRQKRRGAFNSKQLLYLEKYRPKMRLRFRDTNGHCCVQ
As to the kind of experiment: In vitro phosphatase assay (DiFMUP hydrolysis), PRL-2.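 Also: PRL-2 activity read as DiFMUP hydrolysis after 20 min at room temperature with drug, enzyme first pre-reduced at 4 °C for 20 min.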

The target in another assay is T3, recombinant PRL-1 (Homo sapiens, UniProt Q93096).
T3 construct: 6xHis (N, cleaved yes); made in house; host or cells: E. coli One Shot BL21 Star
T3 sequence (Q93096 1-173): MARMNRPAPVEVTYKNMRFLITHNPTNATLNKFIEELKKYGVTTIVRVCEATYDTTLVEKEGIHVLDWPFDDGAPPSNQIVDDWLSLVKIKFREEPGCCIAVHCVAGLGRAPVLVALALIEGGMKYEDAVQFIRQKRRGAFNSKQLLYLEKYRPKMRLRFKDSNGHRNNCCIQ
As to the kind of experiment: In vitro phosphatase assay (DiFMUP hydrolysis), PRL-1. Also: test concentration or dose not given here.

Setting [1] is: FDA-approved drug screen, compared to DMSO.

T1 sequence (O75365 whole entry): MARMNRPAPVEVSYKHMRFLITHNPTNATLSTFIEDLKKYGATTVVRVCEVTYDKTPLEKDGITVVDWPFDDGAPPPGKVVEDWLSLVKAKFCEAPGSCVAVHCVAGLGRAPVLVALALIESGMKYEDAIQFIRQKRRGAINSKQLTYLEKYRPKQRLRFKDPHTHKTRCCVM

Regarding `C[C@]12CC[C@@H]3c4ccc(OC(=O)c5ccccc5)cc4CC[C@H]3[C@@H]1CC[C@@H]2O` [Estradiol Benzoate], the “% Phosphatase Activity (compared to DMSO) PRL-3” value on recombinant PRL-3 (setting [1]) is 91%. In addition, at recombinant PRL-2 (setting [1]), the “% Phosphatase Activity (compared to DMSO) PRL-2” value is 117%. Moreover, on recombinant PRL-1 (setting [1]), the “% Phosphatase Activity (compared to DMSO) PRL-1” value came out at 110%.
The like results for `C[C@]12CC[C@@H]3c4ccc(O)cc4CC[C@H]3[C@@H]1CC[C@@H]2OC(=O)CCC1CCCC1` [Estradiol Cypionate] were, in that order, 74%, 109% and 96%.
The like results for `CCCCC(=O)O[C@H]1CC[C@H]2[C@@H]3CCc4cc(O)ccc4[C@H]3CC[C@]12C` [Estradiol valerate] were, in that order, 85%, 99% and 103%.
The like results for `C[C@]12CC[C@@H]3c4ccc(O)cc4CC[C@H]3[C@@H]1CC[C@@H]2O` [Estradiol] were, in that order, 84%, 113% and 92%.
Regarding `C[C@]12CC[C@@H]3c4ccc(O)cc4CC[C@H]3[C@@H]1C[C@@H](O)[C@@H]2O` [Estriol], at recombinant PRL-3 (setting [1]), the “% Phosphatase Activity (compared to DMSO) PRL-3” value was 79%. In addition, the “% Phosphatase Activity (compared to DMSO) PRL-2” value on recombinant PRL-2 (setting [1]) turned out to be 111%. The “% Phosphatase Activity (compared to DMSO) PRL-1” value at recombinant PRL-1 (setting [1]) was determined as 117%.
The like results for `C[C@]12CC[C@@H]3c4ccc(O)cc4CC[C@H]3[C@@H]1CCC2=O` [Estrone] were, in that order, 76%, 87% and 107%.
The like results for `CCOc1ccc2nc3cc(N)ccc3c(N)c2c1` [Ethacridine lactate monohydrate] were, in that order, 201%, 215% and 246%.
The like results for `CC[C@@H](CO)NCCN[C@@H](CC)CO` [Ethambutol HCl] were, in that order, 93%, 111% and 99%.
Consider `O=S(=O)(O)c1cc(O)ccc1O` [Ethamsylate], for which the “% Phosphatase Activity (compared to DMSO) PRL-3” value on recombinant PRL-3 (setting [1]) amounted to 71%. For the same compound, the “% Phosphatase Activity (compared to DMSO) PRL-2” value on recombinant PRL-2 (setting [1]) came out at 99%. Also, the “% Phosphatase Activity (compared to DMSO) PRL-1” value on recombinant PRL-1 (setting [1]) came out at 96%.
In the case of `C#C[C@]1(O)CC[C@H]2[C@@H]3CCc4cc(O)ccc4[C@H]3CC[C@@]21C` [Ethinyl Estradiol], at recombinant PRL-3 (setting [1]), the “% Phosphatase Activity (compared to DMSO) PRL-3” value was determined as 75%. Also, the “% Phosphatase Activity (compared to DMSO) PRL-2” value on recombinant PRL-2 (setting [1]) was found to be 99%. For the same compound, the “% Phosphatase Activity (compared to DMSO) PRL-1” value on recombinant PRL-1 (setting [1]) worked out at 99%.
Regarding `CCc1cc(C(N)=S)ccn1` [Ethionamide], the “% Phosphatase Activity (compared to DMSO) PRL-3” value at recombinant PRL-3 is 91%. Also, on recombinant PRL-2, the “% Phosphatase Activity (compared to DMSO) PRL-2” value is listed as 101%. The “% Phosphatase Activity (compared to DMSO) PRL-1” value at recombinant PRL-1 turned out to be 91%.
Turning to `CCC1(C)CC(=O)NC1=O` (stereo not drawn) [Ethosuximide], the “% Phosphatase Activity (compared to DMSO) PRL-3” value at recombinant PRL-3 (setting [1]) came out at 79%. In addition, at recombinant PRL-2 (setting [1]), the “% Phosphatase Activity (compared to DMSO) PRL-2” value came out at 104%. Moreover, the “% Phosphatase Activity (compared to DMSO) PRL-1” value on recombinant PRL-1 (setting [1]) was 95%.
As to `CCOC(=O)c1ccc(O)cc1` [Ethylparaben], the “% Phosphatase Activity (compared to DMSO) PRL-3” value on recombinant PRL-3 (setting [1]) is on record as 92%. Further, the “% Phosphatase Activity (compared to DMSO) PRL-2” value on recombinant PRL-2 (setting [1]) was 100%. The “% Phosphatase Activity (compared to DMSO) PRL-1” value at recombinant PRL-1 (setting [1]) amounted to 105%.
The like results for `C#C[C@]1(OC(C)=O)CC[C@H]2[C@@H]3CCC4=C[C@@H](OC(C)=O)CC[C@@H]4[C@H]3CC[C@@]21C` [Ethynodiol diacetate] were, in that order, 88%, 112% and 93%.
The like results for `CC(O)(P(=O)(O)O)P(=O)(O)O` [Etidronate] were, in that order, 91%, 100% and 102%.
With `CCc1cccc2c3c([nH]c12)C(CC)(CC(=O)O)OCC3` (stereo not drawn) [Etodolac], the “% Phosphatase Activity (compared to DMSO) PRL-3” value at recombinant PRL-3 (setting [1]) was determined as 72%. Moreover, the “% Phosphatase Activity (compared to DMSO) PRL-2” value at recombinant PRL-2 (setting [1]) is recorded as 104%. At recombinant PRL-1 (setting [1]), the “% Phosphatase Activity (compared to DMSO) PRL-1” value was determined as 96%.
As for `CCOC(=O)c1cncn1[C@H](C)c1ccccc1` [Etomidate], the “% Phosphatase Activity (compared to DMSO) PRL-3” value on recombinant PRL-3 (setting [1]) is reported as 79%. Further, on recombinant PRL-2 (setting [1]), the “% Phosphatase Activity (compared to DMSO) PRL-2” value is 91%. In addition, the “% Phosphatase Activity (compared to DMSO) PRL-1” value on recombinant PRL-1 (setting [1]) amounted to 98%.
The like results for `C#C[C@]1(O)CC[C@H]2[C@@H]3CCC4=CC(=O)CC[C@@H]4[C@H]3C(=C)C[C@@]21CC` [Etonogestrel] were, in that order, 80%, 85% and 90%.
The like results for `COc1cc([C@@H]2c3cc4c(cc3[C@@H](O[C@@H]3O[C@@H]5CO[C@@H](C)O[C@H]5[C@H](O)[C@H]3O)[C@H]3COC(=O)[C@H]23)OCO4)cc(OC)c1O` [Etoposide] were, in that order, 70%, 98% and 90%.
The like results for `Cc1ccc(-c2ncc(Cl)cc2-c2ccc(S(C)(=O)=O)cc2)cn1` [Etoricoxib] were, in that order, 91%, 102% and 93%.
With `Cc1cc(C#N)cc(C)c1Oc1nc(Nc2ccc(C#N)cc2)nc(N)c1Br` [Etravirine (TMC125)], the “% Phosphatase Activity (compared to DMSO) PRL-3” value at recombinant PRL-3 (setting [1]) is 94%. Besides, the “% Phosphatase Activity (compared to DMSO) PRL-2” value at recombinant PRL-2 (setting [1]) came out at 133%. Besides, the “% Phosphatase Activity (compared to DMSO) PRL-1” value at recombinant PRL-1 (setting [1]) is given as 112%.
The like results for `Cc1cc(C)c2c(c1)[C@@H](N(Cc1cc(C(F)(F)F)cc(C(F)(F)F)c1)c1nnn(C)n1)CCCN2C[C@H]1CC[C@H](C(=O)O)CC1` [Evacetrapib (LY2484595)] were, in that order, 84%, 86% and 84%.
The like results for `CO[C@H]1C[C@@H]2CC[C@@H](C)[C@@](O)(O2)C(=O)C(=O)N2CCCC[C@H]2C(=O)O[C@H]([C@H](C)C[C@@H]2CC[C@@H](OCCO)[C@H](OC)C2)CC(=O)[C@H](C)/C=C(\C)[C@@H](O)[C@@H](OC)C(=O)[C@H](C)C[C@H](C)/C=C/C=C/C=C/1C` [Everolimus (RAD001)] were, in that order, 76%, 86% and 86%.
The like results for `C=C1C[C@@H]2[C@H](CC[C@]3(C)C(=O)CC[C@@H]23)[C@@]2(C)C=CC(=O)C=C12` [Exemestane] were, in that order, 87%, 116% and 95%.
`O=C1[C@H](CC[C@H](O)c2ccc(F)cc2)[C@@H](c2ccc(O)cc2)N1c1ccc(F)cc1` [Ezetimibe]: the “% Phosphatase Activity (compared to DMSO) PRL-3” value on recombinant PRL-3 (setting [1]) turned out to be 80%. Also, the “% Phosphatase Activity (compared to DMSO) PRL-2” value on recombinant PRL-2 (setting [1]) came to 82%. At recombinant PRL-1 (setting [1]), the “% Phosphatase Activity (compared to DMSO) PRL-1” value was found to be 100%.
Regarding `Cc1nc(C(=O)NCC(=O)O)c(O)c2ccc(Oc3ccccc3)cc12` [FG-4592], at recombinant PRL-3 (setting [1]), the “% Phosphatase Activity (compared to DMSO) PRL-3” value is on record as 95%. Besides, the “% Phosphatase Activity (compared to DMSO) PRL-2” value at recombinant PRL-2 (setting [1]) is 139%. The “% Phosphatase Activity (compared to DMSO) PRL-1” value on recombinant PRL-1 (setting [1]) is on record as 136%.
Regarding `O=c1[nH]c(=O)n(C2CCCO2)cc1F` (stereo not drawn) [FT-207 (NSC 148958)], the “% Phosphatase Activity (compared to DMSO) PRL-3” value on recombinant PRL-3 (setting [1]) worked out at 73%. Besides, the “% Phosphatase Activity (compared to DMSO) PRL-2” value on recombinant PRL-2 (setting [1]) was 95%. The “% Phosphatase Activity (compared to DMSO) PRL-1” value at recombinant PRL-1 (setting [1]) turned out to be 115%.
The like results for `CC(=O)OCC(CCn1cnc2cnc(N)nc21)COC(C)=O` [Famciclovir] were, in that order, 79%, 115% and 107%.
Regarding `NC(N)=Nc1nc(CSCCC(N)=NS(N)(=O)=O)cs1` [Famotidine], the “% Phosphatase Activity (compared to DMSO) PRL-3” value on recombinant PRL-3 was 86%. The “% Phosphatase Activity (compared to DMSO) PRL-2” value on recombinant PRL-2 came to 115%. Also, the “% Phosphatase Activity (compared to DMSO) PRL-1” value on recombinant PRL-1 was 110%.
Consider `Cl.O=S(=O)(c1cccc2cnccc12)N1CCCNCC1` [Fasudil (HA-1077) HCl], for which the “% Phosphatase Activity (compared to DMSO) PRL-3” value at recombinant PRL-3 (setting [1]) is listed as 82%. In addition, at recombinant PRL-2 (setting [1]), the “% Phosphatase Activity (compared to DMSO) PRL-2” value amounted to 95%. The “% Phosphatase Activity (compared to DMSO) PRL-1” value at recombinant PRL-1 (setting [1]) turned out to be 102%.
As to `Cc1nc(-c2ccc(OCC(C)C)c(C#N)c2)sc1C(=O)O` [Febuxostat], on recombinant PRL-3 (setting [1]), the “% Phosphatase Activity (compared to DMSO) PRL-3” value turned out to be 89%. The “% Phosphatase Activity (compared to DMSO) PRL-2” value at recombinant PRL-2 (setting [1]) worked out at 85%. On recombinant PRL-1 (setting [1]), the “% Phosphatase Activity (compared to DMSO) PRL-1” value is 95%.
For `NC(=O)OCC(COC(N)=O)c1ccccc1` [Felbamate], the “% Phosphatase Activity (compared to DMSO) PRL-3” value at recombinant PRL-3 (setting [1]) is 71%. On recombinant PRL-2 (setting [1]), the “% Phosphatase Activity (compared to DMSO) PRL-2” value turned out to be 97%. Besides, the “% Phosphatase Activity (compared to DMSO) PRL-1” value on recombinant PRL-1 (setting [1]) was 103%.
The like results for `CCOC(=O)C1=C(C)NC(C)=C(C(=O)OC)C1c1cccc(Cl)c1Cl` (stereo not drawn) [Felodipine] were, in that order, 132%, 227% and 161%.
In the case of `O=C(O)CCC(=O)c1ccc(-c2ccccc2)cc1` [Fenbufen], at recombinant PRL-3 (setting [1]), the “% Phosphatase Activity (compared to DMSO) PRL-3” value is on record as 90%. Also, at recombinant PRL-2 (setting [1]), the “% Phosphatase Activity (compared to DMSO) PRL-2” value is 103%. Also, at recombinant PRL-1 (setting [1]), the “% Phosphatase Activity (compared to DMSO) PRL-1” value amounted to 98%.

Source of the values: PMC8119466, “A screen of FDA-approved drugs identifies inhibitors of protein tyrosine phosphatase 4A3 (PTP4A3 or PRL-3)” (Scientific Reports, 2021).
